This assay relates to gastric secretion (gastric acid output) in chronic gastrostormy tube-implanted dogs. In words: Gastric secretion inhibitory action in chronic gastrostormy tube-implanted dogs (histamine-stimulated). The assay is classed as in vivo. The following applies: i.d., histamine i.v.; for Gastric secretion inhibitory action (%): first day, 1 h 40 min to 2 h after administration; for Gastric secretion inhibition duration (%): second day (24 hours after administration). Here is the method:
Gastric Secretion Inhibitory Action in Chronic Gastrostormy Tube-Implanted Dogs
Large dogs (body weight: 14-19 kg) having chronic gastrostormy tubes implanted were used to examine the gastric secretion inhibitory action and gastric secretion inhibitory action durations of the example compounds. The experiment was conducted over a period of 2 days. On the first day, histamine (50 or 75 μg/kg/h) was continuously administered intravenously for 3 hours and gastric juice was taken every 20 minutes. One hour after starting histamine administration, the example compound suspended or dissolved in a 0.5% methylcellulose solution was administered to the duodenum through an indwelling catheter at a dose of 0.1 ml/kg. The gastric secretion inhibitory action of the example compound was examined for 2 hours thereafter. On the second day (24 hours after administration of the example compound), histamine was continuously administered intravenously for 2 hours and gastric juice was taken every 20 minutes to examine the gastric secretion inhibitory action duration. After measuring the gastric juice volume, 0.5 ml of gastric juice was sampled and subjected to neutralization titration to pH 7.0 with a 0.04 mol/l sodium hydroxide solution to measure the acid concentration. The acid concentration was multiplied by the gastric juice volume to determine the gastric acid output. The gastric secretion inhibitory action was evaluated by the gastric secretion inhibition (%) on the first day. The gastric secretion inhibitory action (%) was determined by the formula shown below. Where two or more cases were examined, the average of all the cases was determined.
Gastric secretion inhibitory action (%)=(A−B)/A×100
[A]: Gastric acid output during 20 minutes, from 40 minutes to 1 hour after start of histamine administration [B]: Gastric acid output during 20 minutes, from 1 hour and 40 minutes to 2 hours after administration of example compound
The gastric secretion inhibitory action duration was evaluated by the gastric secretion inhibition (%) on the second day. The gastric secretion inhibitory action duration (%) was determined by the formula shown below.
Gastric secretion inhibitory action duration (%)=(C−D)/C×100
[C]: Total gastric acid output from start to one hour after histamine administration on the first day [D]: Total gastric acid output from start to one hour after histamine administration on the second day

The source of these data is patent US20090182149A1, “SALT OF SULFINYLBENZIMIDAZOLE COMPOUND, AND CRYSTAL AND AMORPHOUS FORM THEREOF” (priority 2006, published 2009).

`Cc1cnc(C[S+]([O-])c2nc3ccccc3[n-]2)c(C)c1OCC1COC(C)(C)OC1.[Na+]` [Compound A, Sodium salt of (R)-2-({[4-(2,2-dimethyl-1,3-dioxan-5-yl)methoxy-3,5-dimethylpyridin-2-yl]methyl}sulfinyl)-1H-benzimidazole]: the “Gastric secretion inhibitory action (%)” value was determined as 8% (0.1 mg/kg, average of 4 cases); 65% (0.2 mg/kg, average of 4 cases); 97% (0.4 mg/kg, average of 10 cases); 100% (0.8 mg/kg, average of 8 cases). Also, the “Gastric secretion inhibition duration (%)” value reads like this: (0.1 mg/kg, 4 cases) 6%; (0.2 mg/kg, 4 cases) 46%; (0.4 mg/kg, 10 cases) 77%; (0.8 mg/kg, 8 cases) 89%.
